Results as given in US8877748B2, “Heterocyclic fused anthraquinone derivatives, manufacturing method and pharmaceutical composition using thereof” (National Defense Medical Center, priority 2012, dated 2014).

What was measured:
EKVX = test: NCI one-dose screening, non-small cell lung cancer EKVX; type: cell-based, human; details: 10 μM
SK-MEL-5 = test: NCI one-dose screening, melanoma SK-MEL-5; type: cell-based, human; details: 10 μM
COLO 205 = test: NCI one-dose screening, colon cancer COLO 205; type: cell-based, human; details: 10 μM
786-O = test: NCI one-dose screening, renal cancer 786-O; type: cell-based, human; details: 10 μM
ACHN = test: NCI one-dose screening, renal cancer ACHN; type: cell-based, human; details: 10 μM
SF-539 = test: NCI one-dose screening, CNS cancer SF-539; type: cell-based, human; details: 10 μM
SK-OV-3 = test: NCI one-dose screening, ovarian cancer SK-OV-3; type: cell-based, human; details: 10 μM
UACC-257 = test: NCI one-dose screening, melanoma UACC-257; type: cell-based, human; details: 10 μM
SK-MEL-2 = test: NCI one-dose screening, melanoma SK-MEL-2; type: cell-based, human; details: 10 μM
HCT-116 = test: NCI one-dose screening, colon cancer HCT-116; type: cell-based, human; details: 10 μM
HCC-2998 = test: NCI one-dose screening, colon cancer HCC-2998; type: cell-based, human; details: 10 μM
RXF, 393 = test: NCI one-dose screening, renal cancer RXF, 393; type: cell-based, human; details: 10 μM
HT29 = test: NCI one-dose screening, colon cancer HT29; type: cell-based, human; details: 10 μM
MDA-MB-468 = test: NCI one-dose screening, breast cancer MDA-MB-468; type: cell-based, human; details: 10 μM
[1] = tested on: PC-3 prostate cancer cell line; test: SRB assay cell viability, PC-3 prostate cancer cell line; type: cell-based, human; details: Homo sapiens, PC-3 prostate cancer cell line, Table II prints no unit, μM printed, read-out: SRB assay: 50% inhibition of cancer cell proliferation of sample concentration (IC50) of PC-3 prostate cancer cell line
NCl/ADR-RES = test: NCI one-dose screening, breast cancer NCl/ADR-RES; type: cell-based, human; details: 10 μM; listed under Ovarian cancer
OVCAR-8 = test: NCI one-dose screening, ovarian cancer OVCAR-8; type: cell-based, human; details: 10 μM
NCI-H23 = test: NCI one-dose screening, non-small cell lung cancer NCI-H23; type: cell-based, human; details: 10 μM
OVCAR-5 = test: NCI one-dose screening, ovarian cancer OVCAR-5; type: cell-based, human; details: 10 μM
M14 = test: NCI one-dose screening, melanoma M14; type: cell-based, human; details: 10 μM
SNB-75 = test: NCI one-dose screening, CNS cancer SNB-75; type: cell-based, human; details: 10 μM
HCT-15 = test: NCI one-dose screening, colon cancer HCT-15; type: cell-based, human; details: 10 μM
T-47D = test: NCI one-dose screening, breast cancer T-47D; type: cell-based, human; details: 10 μM
CAKI-1 = test: NCI one-dose screening, renal cancer CAKI-1; type: cell-based, human; details: 10 μM
SNB-19 = test: NCI one-dose screening, CNS cancer SNB-19; type: cell-based, human; details: 10 μM
MALME-3M = test: NCI one-dose screening, melanoma MALME-3M; type: cell-based, human; details: 10 μM
UACC-62 = test: NCI one-dose screening, melanoma UACC-62; type: cell-based, human; details: 10 μM
LOX IMVI = test: NCI one-dose screening, melanoma LOX IMVI; type: cell-based, human; details: 10 μM
SK-MEL-28 = test: NCI one-dose screening, melanoma SK-MEL-28; type: cell-based, human; details: 10 μM
BT-549 = test: NCI one-dose screening, breast cancer BT-549; type: cell-based, human; details: 10 μM
UO-31 = test: NCI one-dose screening, renal cancer UO-31; type: cell-based, human; details: 10 μM
TK-10 = test: NCI one-dose screening, renal cancer TK-10; type: cell-based, human; details: 10 μM
IGROV1 = test: NCI one-dose screening, ovarian cancer IGROV1; type: cell-based, human; details: 10 μM
HOP-62 = test: NCI one-dose screening, non-small cell lung cancer HOP-62; type: cell-based, human; details: 10 μM
SN12C = test: NCI one-dose screening, renal cancer SN12C; type: cell-based, human; details: 10 μM
human tumor cell lines = test: NCI one-dose screening, Mean / Delta / Range of growth percent over all tested cell lines; type: cell-based; details: 10 μM
NCI-H522 = test: NCI one-dose screening, non-small cell lung cancer NCI-H522; type: cell-based, human; details: 10 μM
MCF7 = test: NCI one-dose screening, breast cancer MCF7; type: cell-based, human; details: 10 μM
U251 = test: NCI one-dose screening, CNS cancer U251; type: cell-based, human; details: 10 μM
MDA-MB-231/ATCC = test: NCI one-dose screening, breast cancer MDA-MB-231/ATCC; type: cell-based, human; details: 10 μM
NCI-H226 = test: NCI one-dose screening, non-small cell lung cancer NCI-H226; type: cell-based, human; details: 10 μM
MDA, -MB-435 = test: NCI one-dose screening, breast cancer MDA, -MB-435; type: cell-based, human; details: 10 μM; listed under Melanoma
A549/ATCC = test: NCI one-dose screening, non-small cell lung cancer A549/ATCC; type: cell-based, human; details: 10 μM

SMILES: O=C1c2ccccc2C(=O)c2c1cc(Sc1cccc(Cl)c1)c1nsnc21 [C37, 4-(3-chlorophenyl-thio)anthra[2,1-c][1,2,5] thiadiazol-6,11-dione]
- Growth Percent EKVX (EKVX): 43.65%
- Growth Percent SK-MEL-5 (SK-MEL-5): 19.02%
- Growth Percent COLO 205 (COLO 205): 105.98%
- Growth Percent 786-0 (786-O): −2.06%
- Growth Percent ACHN (ACHN): −92.53%
- Growth Percent SF-539 (SF-539): −52.72%
- Growth Percent SK-OV-3 (SK-OV-3): 95.44%
- Growth Percent UACC-257 (UACC-257): −84.59%
- Growth Percent SK-MEL-2 (SK-MEL-2): −53.17%
- Growth Percent HCT-116 (HCT-116): −67.84%
- Growth Percent HCC-2998 (HCC-2998): 101.66%
- Growth Percent RXF 393 (RXF, 393): −27.84%
- Growth Percent HT29 (HT29): 102.17%
- Growth Percent MDA-MB-468 (MDA-MB-468): −79.19%
- IC50 [1]: 5.64 µM
- Growth Percent NCI/ADR-RES (NCl/ADR-RES): −15.13%
- Growth Percent OVCAR-8 (OVCAR-8): −22.92%
- Growth Percent NCI-H23 (NCI-H23): −26.91%
- Growth Percent OVCAR-5 (OVCAR-5): 108.55%
- Growth Percent M14 (M14): −76.44%
- Growth Percent SNB-75 (SNB-75): 26.08%
- Growth Percent HCT-15 (HCT-15): 17.97%
- Growth Percent T-47D (T-47D): −42.26%
- Growth Percent CAKI-1 (CAKI-1): −3.69%
- Growth Percent SNB-19 (SNB-19): 56.88%
- Growth Percent MALME-3M (MALME-3M): −86.56%
- Growth Percent UACC-62 (UACC-62): −64.98%
- Growth Percent LOX IMVI (LOX IMVI): −59.25%
- Growth Percent SK-MEL-28 (SK-MEL-28): 24.96%
- Growth Percent BT-549 (BT-549): 36.21%
- Growth Percent UO-31 (UO-31): −74.79%
- Growth Percent TK-10 (TK-10): 53.81%
- Growth Percent IGROV1 (IGROV1): −13.50%
- Growth Percent HOP-62 (HOP-62): 42.12%
- Growth Percent SN12C (SN12C): −66.17%
- Growth Percent Delta (human tumor cell lines; delta over all cell lines): 86.78%
- Growth Percent Mean (human tumor cell lines; mean over all cell lines): −5.75%
- Growth Percent Range (human tumor cell lines; range over all cell lines): 201.08%
- Growth Percent NCI-H522 (NCI-H522): 7.18%
- Growth Percent MCF7 (MCF7): −69.36%
- Growth Percent U251 (U251): −69.50%
- Growth Percent MDA-MB-231/ATCC (MDA-MB-231/ATCC): −29.08%
- Growth Percent NCI-H226 (NCI-H226): 78.07%
- Growth Percent MDA-MB-435 (MDA, -MB-435): −82.33%
- Growth Percent A549/ATCC (A549/ATCC): 107.48%
